These molecules were tested on purified human Hsp90 (assay: Binding Assay: fluorescence polarization with BODIPY-labeled geldanamycin). Settings: 5 μM compound, BODIPY-GM 10 nM, Hsp90 30 nM.
Method in brief: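 Compounds in 2% DMSO final compete with 10 nM BODIPY-GM for 30 nM purified human Hsp90, incubated overnight at room temperature in pH 7.3 HEPES buffer containing Na2MoO4 and DTT. Polarization (mP, ex/em 485/530) normalized to DMSO gives percent inhibition; autofluorescence-confounded data excluded.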

First: CC(C)(C)OC(=O)NC(CCn1cnc(N)c2nc(Sc3cc4c(cc3Br)OCO4)nc1-2)C1CCOCC1 (stereo not drawn) [Example 683, [3-[6-Amino-8-(6-bromo-benzo[1,3]dioxol-5-ylsulfanyl)-9H-purin-3-yl]-1-(tetrahydro-pyran-4-yl)-propyl]-carbamic acid tert-butyl ester]
Second: CC(C)[C@H](NC(=O)OC(C)(C)C)C(=O)N1CCCC(CCn2cnc(N)c3nc(Sc4cc5c(cc4Br)OCO5)nc2-3)C1 (stereo partly drawn) [Example 698, tert-Butyl((1S)-1-{[3-(2-{6-amino-8-[(6-bromo-1,3-benzodioxol-5-yl)thio]-3H-purin-3-yl}ethyl)piperidin-1-yl]carbonyl}-2-methylpropyl)carbamate]
The “% Inhibition at 5 μM Compound Concentration” value of the first is lower: 5% for the first, 55% for the second.

Going from `Nc1ncn(CCC(N)C2CC2)c2nc(Sc3cc4c(cc3Br)OCO4)nc1-2` (stereo not drawn) [Example 688, 3-(3-Amino-3-cyclopropylpropyl)-8-[(6-bromo-1,3-benzodioxol-5-yl)thio]-3H-purin-6-amine] to `CO[C@H](C)C(=O)N1CCC(CCn2cnc(N)c3nc(Sc4cc5c(cc4Br)OCO5)nc2-3)CC1` [Example 726, 8-[(6-Bromo-1,3-benzodioxol-5-yl)thio]-3-(2-{1-[(2R)-2-methoxypropanoyl]piperidin-4-yl}ethyl)-3 H-purin-6-amine], the “% Inhibition at 5 μM Compound Concentration” value falls from 30% to 26%.

Same assay, conditions: BODIPY-GM 10 nM, Hsp90 30 nM

Compared with `CC(C)(C)OC(=O)NC(CCn1c(Sc2cc3c(cc2Br)OCO3)nc2c(N)ncnc21)C1CCCC1` (stereo not drawn) [Example 681, {3-[6-Amino-8-(6-bromo-benzo[1,3]dioxol-5-ylsulfanyl)-purin-9-yl]-1-cyclopentyl-propyl}-carbamic acid tert-butyl ester], `CC(C)(C)OC(=O)NC(CCn1c(Sc2cc3c(cc2Br)OCO3)nc2c(N)ncnc21)C1CCOCC1` (stereo not drawn) [Example 682, [3-[6-Amino-8-(6-bromo-benzo[1,3]dioxol-5-ylsulfanyl)-purin-9-yl]-1-(tetrahydro-pyran-4-yl)-propyl]-carbamic acid tert-butyl ester] is 5.3-fold lower in IC50: 1000 nM for the first, 190 nM for the second. The second is the more potent here.

First: Nc1ncnc2c1nc(Sc1cc3c(cc1Br)OCO3)n2CCC(N)C1CC1 (stereo not drawn) [Example 687, 9-(3-Amino-3-cyclopropylpropyl)-8-[(6-bromo-1,3-benzodioxol-5-yl)thio]-9H-purin-6-amine]
Second: Nc1ncnc2c1nc(Sc1cc3c(cc1Br)OCO3)n2CCC(N)C1CCCC1 (stereo not drawn) [Example 691, 9-(3-Amino-3-cyclopentyl-propyl)-8-(6-bromo-benzo[1,3]dioxol-5-ylsulfanyl)-9H-purin-6-ylamine]
The IC50 of the first is 1.6-fold lower: 80 nM for the first, 125 nM for the second. The first is the more potent here.

First: Nc1ncnc2c1nc(Sc1cc3c(cc1Br)OCO3)n2CCC(N)C1CCSCC1 (stereo not drawn) [Example 689, 9-[3-Amino-3-(tetrahydro-2H-thiopyran-4-yl)propyl]-8-[(6-bromo-1,3-benzodioxol-5-yl)thio]-9H-purin-6-amine]
Second: Nc1ncnc2c1nc(Sc1cc3c(cc1Br)OCO3)n2CCC(N)C1CCCCC1 (stereo not drawn) [Example 690, 9-(3-Amino-3-cyclohexylpropyl)-8-[(6-bromo-1,3-benzodioxol-5-yl)thio]-9H-purin-6-amine]
The IC50 of the first is 2.4-fold lower: 120 nM for the first, 290 nM for the second.

Going from `Nc1ncnc2c1nc(Sc1cc3c(cc1Br)OCO3)n2CCC(N)C1CCOCC1` (stereo not drawn) [Example 692, 9-[3-Amino-3-(tetrahydro-pyran-4-yl)-propyl]-8-(6-bromo-benzo[1,3]dioxol-5-ylsulfanyl)-9H-purin-6-ylamine] to `CO[C@@H](C)C(=O)N1CCC(CCn2c(Sc3cc4c(cc3Br)OCO4)nc3c(N)ncnc32)CC1` [Example 724, 8-[(6-Bromo-1,3-benzodioxol-5-yl)thio]-9-(2-{1-[(2S)-2-methoxypropanoyl]piperidin-4-yl}ethyl)-9H-purin-6-amine], the IC50 falls from 2000 nM to 105 nM (19-fold).

Going from `C[C@H](NC(=O)OC(C)(C)C)C(=O)N1CCC(CCn2c(Sc3cc4c(cc3Br)OCO4)nc3c(N)ncnc32)CC1` [Example 693, [(S)-2-(4-{2-[6-Amino-8-(6-bromo-benzo[1,3]dioxol-5-ylsulfanyl) -purin-9-yl]-ethyl}-piperidin-1-yl)-1-methyl-2-oxo-ethyl]-carbamic acid tert-butyl ester] to `C[C@@H](NC(=O)OC(C)(C)C)C(=O)N1CCC(CCn2c(Sc3cc4c(cc3Br)OCO4)nc3c(N)ncnc32)CC1` [Example 695, tert-Butyl{(1R)-2-[4-(2-{6-amino-8-[(6-bromo-1,3-benzodioxol-5-yl)thio]-9H-purin-9-yl}ethyl)piperidin-l-yl]-1-methyl-2-oxoethyl}carbamate], the IC50 rises from 59 nM to 410 nM (6.9-fold).

First: CC(C)[C@H](NC(=O)OC(C)(C)C)C(=O)N1CCCC(CCn2c(Sc3cc4c(cc3Br)OCO4)nc3c(N)ncnc32)C1 (stereo partly drawn) [Example 697, tert-Butyl((1S)-1-{[3-(2-{6-amino-8-[(6-bromo-1,3-benzodioxol-5-yl)thio]-9H-purin-9-yl}ethyl)piperidin-1-yl]carbonyl}-2-methylpropyl)-carbamate]
Second: C[C@@H](NC(=O)OC(C)(C)C)C(=O)N1CCCC(CCn2c(Sc3cc4c(cc3Br)OCO4)nc3c(N)ncnc32)C1 (stereo partly drawn) [Example 701, tert-Butyl{(1R)-2-[3-(2-{6-amino-8-[(6-bromo-1,3-benzodioxol-5-yl)thio]-9H-purin-9-yl}ethyl)piperidin-1-yl]-1-methyl-2-oxoethyl}carbamate]
The IC50 of the first is 3-fold higher: 600 nM for the first, 200 nM for the second. The second is the more potent here.

`CC(C)C[C@H](NC(=O)OC(C)(C)C)C(=O)N1CCC(CCn2c(Sc3cc4c(cc3Br)OCO4)nc3c(N)ncnc32)CC1` [Example 699, tert-Butyl((1S)-1-{[4-(2-{6-amino-8-[(6-bromo-1,3-benzodioxol-5-yl)thio]-9H-purin-9-yl}ethyl)piperidin-1-yl]carbonyl}-3-methylbutyl)carbamate] and `CC(C)[C@H](NC(=O)OC(C)(C)C)C(=O)N1CCC(CCn2c(Sc3cc4c(cc3Br)OCO4)nc3c(N)ncnc32)CC1` [Example 713, tert-Butyl((1S)-1-{[4-(2-{6-amino-8-[(6-bromo-1,3-benzodioxol-5-yl)thio]-9H-purin-9-yl}ethyl)piperidin-1-yl]carbonyl}-2-methylpropyl)carbamate] are within 1.5-fold of each other in IC50: 600 nM for the first, 495 nM for the second.

First: C[C@H](NC(=O)OC(C)(C)C)C(=O)N1CCCC(CCn2c(Sc3cc4c(cc3Br)OCO4)nc3c(N)ncnc32)C1 (stereo partly drawn) [Example 703, tert-Butyl{(1S)-2-[3-(2-{6-amino-8-[(6-bromo-1,3-benzodioxol-5-yl)thio]-9H-purin-9-yl}ethyl)piperidin-1-yl]-1-methyl-2-oxoethyl}carbamate]
Second: CC(C)C[C@H](NC(=O)OC(C)(C)C)C(=O)N1CCCC(CCn2c(Sc3cc4c(cc3Br)OCO4)nc3c(N)ncnc32)C1 (stereo partly drawn) [Example 719, tert-Butyl((1S)-1-{[3-(2-{6-amino-8-[(6-bromo-1,3-benzodioxol-5-yl)thio]-9H-purin-9-yl}ethyl)piperidin-1-yl]carbonyl}-3-methylbutyl)carbamate]
The IC50 of the first is 4.2-fold lower: 190 nM for the first, 800 nM for the second.

Compared with `CC(C)(C)OC(=O)NCC(=O)N1CCC(CCn2c(Sc3cc4c(cc3Br)OCO4)nc3c(N)ncnc32)CC1` [Example 705, tert-Butyl{2-[4-(2-{6-amino-8-[(6-bromo-1,3-benzodioxol-5-yl)thio]-9H-purin-9-yl}ethyl)piperidin-1-yl]-2-oxoethyl}carbamate], `CC(C)(C)OC(=O)NC(C)(C)C(=O)N1CCC(CCn2c(Sc3cc4c(cc3Br)OCO4)nc3c(N)ncnc32)CC1` [Example 711] is 7.5-fold higher in IC50: 80 nM for the first, 600 nM for the second. The first is the more potent here.

Going from `CN(C)CC(=O)N1CCC(CCn2c(Sc3cc4c(cc3Br)OCO4)nc3c(N)ncnc32)CC1` [Example 707, 8-[(6-Bromo-1,3-benzodioxol-5-yl)thio]-9-(2-{1-[(dimethylamino)acetyl]piperidin-4-yl}ethyl)-9H-purin-6-amine] to `COCC(=O)N1CCC(CCn2c(Sc3cc4c(cc3Br)OCO4)nc3c(N)ncnc32)CC1` [Example 722, 8-[(6-Bromo-1,3-benzodioxol-5-yl)thio]-9-{2-[1-(methoxyacetyl)piperidin-4-yl]ethyl}-9H-purin-6-amine], the IC50 rises from 70 nM to 130 nM (1.9-fold). The first is the more potent here.

`CC(C)(C)OC(=O)NC1(C(=O)N2CCC(CCn3c(Sc4cc5c(cc4Br)OCO5)nc4c(N)ncnc43)CC2)CC1` [Example 709, tert-Butyl(1-{[4-(2-{6-amino-8-[(6-bromo-1,3-benzodioxol-5-yl)thio]-9H-purin-9-yl}ethyl)piperidin-1-yl]carbonyl}cyclopropyl)carbamate] and `CC(C)(C)OC(=O)N1CC[C@H]1C(=O)N1CCC(CCn2c(Sc3cc4c(cc3Br)OCO4)nc3c(N)ncnc32)CC1` [Example 728, tert-Butyl(2S)-2-{[4-(2-{6-amino-8-[(6-bromo-1,3-benzodioxol-5-yl)thio]-9H-purin-9-yl}ethyl)piperidin-1-yl]carbonyl}azetidine-1-carboxylate] are within 1.5-fold of each other in IC50: 230 nM for the first, 200 nM for the second.

Going from `C[C@@H](C(=O)N1CCC(CCn2c(Sc3cc4c(cc3Br)OCO4)nc3c(N)ncnc32)CC1)N(C)C(=O)OC(C)(C)C` [Example 715, tert-Butyl{(1S)-2-[4-(2-{6-amino-8-[(6-bromo-1,3-benzodioxol-5-yl)thio]-9H-purin-9-yl}ethyl)piperidin-1-yl]-1-methyl-2-oxoethyl}methylcarbamate] to `C[C@H](C(=O)N1CCC(CCn2c(Sc3cc4c(cc3Br)OCO4)nc3c(N)ncnc32)CC1)N(C)C(=O)OC(C)(C)C` [Example 717, tert-Butyl{(1R)-2-[4-(2-{6-amino-8-[(6-bromo-1,3-benzodioxol-5-yl)thio]-9H-purin-9-yl}ethyl)piperidin-1-yl]-1-methyl-2-oxoethyl}methylcarbamate], the IC50 falls from greater than 2000 nM to 200 nM.

First: CO[C@H](C)C(=O)N1CCC(CCn2c(Sc3cc4c(cc3Br)OCO4)nc3c(N)ncnc32)CC1 [Example 725, 8-[(6-Bromo-1,3-benzodioxol-5-yl)thio]-9-(2-{1-[(2R)-2-methoxypropanoyl]piperidin-4-yl}ethyl)-9H-purin-6-amine]
Second: CO[C@@H](C)C(=O)N1CCC(CCn2cnc(N)c3nc(Sc4cc5c(cc4Br)OCO5)nc2-3)CC1 [Example 727, 8-[(6-Bromo-1,3-benzodioxol-5-yl)thio]-3-(2-{1-[(2S)-2-methoxypropanoyl]piperidin-4-yl}ethyl)-3 H-purin-6-amine]
The IC50 of the first is 320-fold lower: 100 nM for the first, 32000 nM for the second. The first is the more potent here.

— US7595401B2, “Therapeutic compounds and their use in cancer” (Myriad Pharmaceuticals, Inc., priority 2006, dated 2009)
